# Structures can show the parent of a compound that is named as a salt. Where two headings read alike, the source gives them in different places.
# Legend:
# [1] = biological target: Human KDR (residues 790-1356) (Homo sapiens (Human), UniProt P35968); experiment: Human KDR kinase assay, HTRF KinEase (Example B-2); format: biochemical
# Description: Kinase activity and compound inhibition were also investigated using the HTRF® KinEase assay (Cisbio Cat #62TKOPEB) per manufacturer's instructions. In short, compounds were delivered in 300 nL volumes at 10 different concentrations in DMSO (3% final) to empty 384-well assay plates (Corning cat #3824). A mixture of enzyme, […] biotynlated peptide substrate, and buffer in 10 μL volume was added. The assay was started upon the addition of ATP (at Km). The 10 μL reaction was incubated at room temperature. The reaction was stopped upon the addition of detection buffer containing streptavidin-XL665 ([…]) and TK antibody-Eu3+([…]). After a 60 min incubation at room temperature, the fluorescence at 665 nm and 620 nm was read on an Envision microplate reader (Perkin Elmer).
# Kinase activity normalized to DMSO (100% activity) and reference compound at […] and (0% activity) was calculated using the fluorescence ratio […]. IC50 values were calculated by nonlinear regression analysis using a 4-parameter logistic curve fit in ActivityBase XE (IDBS).
# Example B-2: Human KDR (residues 790-1356; CarnaBio, 0.1 ng/well) was also incubated with enzymatic buffer (Cisbio) supplemented with 5 mM MgCl2, 1 mM MnCl2, and 1 mM DTT. The mixture was added to the pre-plated compounds. The reaction was initiated upon addition of ATP at Km (4.0 μM). The reaction was incubated at room temperature for 40 min and stopped upon the addition of SA-XL665 and TK-antibody both diluted in EDTA-containing kinase detection buffer (Cisbio). The kinase activity was calculated as stated above and the IC50 values were reported.
# [2] = biological target: Human MER (residues 528-999) (Homo sapiens (Human), UniProt Q12866); experiment: Human Mer kinase assay, HTRF KinEase (Example C-2); format: biochemical
# Human MER (residues 528-999), sequence (Q12866 528-999): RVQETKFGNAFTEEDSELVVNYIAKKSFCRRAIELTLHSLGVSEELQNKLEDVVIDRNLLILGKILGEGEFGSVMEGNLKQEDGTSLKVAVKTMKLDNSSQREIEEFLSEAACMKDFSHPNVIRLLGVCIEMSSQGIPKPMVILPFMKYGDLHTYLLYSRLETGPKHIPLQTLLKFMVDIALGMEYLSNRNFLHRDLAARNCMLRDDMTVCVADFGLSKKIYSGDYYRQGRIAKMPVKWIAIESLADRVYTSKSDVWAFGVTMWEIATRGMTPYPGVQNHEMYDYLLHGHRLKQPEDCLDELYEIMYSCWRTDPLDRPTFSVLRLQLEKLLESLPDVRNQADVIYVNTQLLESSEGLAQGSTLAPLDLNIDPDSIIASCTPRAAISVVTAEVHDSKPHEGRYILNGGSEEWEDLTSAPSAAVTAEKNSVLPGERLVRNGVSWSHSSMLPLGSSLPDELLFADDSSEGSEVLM
# Summary of the method: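 IC50 values from 10 concentrations via 4-parameter logistic fit of […], with DMSO as 100% and 1 μM reference compound as 0% activity. Reaction: MER kinase domain 528-999, 1 ng/well, 40 μM ATP (Km), biotin peptide, 5 mM MgCl2, 1 mM DTT, 3% DMSO, room temperature 60 min; HTRF streptavidin-XL665/Eu-antibody detection.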
# [3] = biological target: Human MET (residues 956-1390) (Homo sapiens (Human), UniProt P08581); experiment: Human Met kinase assay, HTRF KinEase (Example D-2); format: biochemical; conditions: read-out: c-Met IC50
# Human MET (residues 956-1390), sequence (P08581 956-1390): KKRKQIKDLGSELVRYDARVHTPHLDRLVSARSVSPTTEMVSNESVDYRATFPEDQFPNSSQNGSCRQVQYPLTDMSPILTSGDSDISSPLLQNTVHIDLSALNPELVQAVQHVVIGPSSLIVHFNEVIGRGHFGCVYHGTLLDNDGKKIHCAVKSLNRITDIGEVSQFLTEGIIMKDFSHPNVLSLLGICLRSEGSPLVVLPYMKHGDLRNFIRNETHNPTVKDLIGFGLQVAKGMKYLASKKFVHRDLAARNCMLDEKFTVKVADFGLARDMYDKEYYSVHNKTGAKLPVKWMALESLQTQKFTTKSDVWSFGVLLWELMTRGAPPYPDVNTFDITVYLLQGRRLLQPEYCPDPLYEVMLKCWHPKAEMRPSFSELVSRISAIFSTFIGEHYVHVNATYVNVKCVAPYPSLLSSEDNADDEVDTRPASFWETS
# Summary of the method: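 IC50 values come from a 4-parameter logistic fit of the […] fluorescence ratio, set between DMSO (100%) and reference compound at 1 μM (0%). Reactions held MET 956-1390 at 0.1 ng/well, ATP at Km, biotinylated peptide, 5 mM MgCl2, 1 mM MnCl2, 1 mM DTT and 3% DMSO, and ran 40 min at room temperature before streptavidin-XL665/Eu-antibody detection.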
# [4] = biological target: Met (phospho-Met, HGF-stimulated PC-3 prostate cancer cells) (Homo sapiens (Human), UniProt P08581); experiment: Met autophosphorylation ELISA in PC-3 cells (Example F); format: cell-based; conditions: cellular activity; Met autophosphorylation ELISA in PC-3 cells; read-out: c-Met IC50
# Met (phospho-Met, HGF-stimulated PC-3 prostate cancer cells), sequence (P08581 25-1390): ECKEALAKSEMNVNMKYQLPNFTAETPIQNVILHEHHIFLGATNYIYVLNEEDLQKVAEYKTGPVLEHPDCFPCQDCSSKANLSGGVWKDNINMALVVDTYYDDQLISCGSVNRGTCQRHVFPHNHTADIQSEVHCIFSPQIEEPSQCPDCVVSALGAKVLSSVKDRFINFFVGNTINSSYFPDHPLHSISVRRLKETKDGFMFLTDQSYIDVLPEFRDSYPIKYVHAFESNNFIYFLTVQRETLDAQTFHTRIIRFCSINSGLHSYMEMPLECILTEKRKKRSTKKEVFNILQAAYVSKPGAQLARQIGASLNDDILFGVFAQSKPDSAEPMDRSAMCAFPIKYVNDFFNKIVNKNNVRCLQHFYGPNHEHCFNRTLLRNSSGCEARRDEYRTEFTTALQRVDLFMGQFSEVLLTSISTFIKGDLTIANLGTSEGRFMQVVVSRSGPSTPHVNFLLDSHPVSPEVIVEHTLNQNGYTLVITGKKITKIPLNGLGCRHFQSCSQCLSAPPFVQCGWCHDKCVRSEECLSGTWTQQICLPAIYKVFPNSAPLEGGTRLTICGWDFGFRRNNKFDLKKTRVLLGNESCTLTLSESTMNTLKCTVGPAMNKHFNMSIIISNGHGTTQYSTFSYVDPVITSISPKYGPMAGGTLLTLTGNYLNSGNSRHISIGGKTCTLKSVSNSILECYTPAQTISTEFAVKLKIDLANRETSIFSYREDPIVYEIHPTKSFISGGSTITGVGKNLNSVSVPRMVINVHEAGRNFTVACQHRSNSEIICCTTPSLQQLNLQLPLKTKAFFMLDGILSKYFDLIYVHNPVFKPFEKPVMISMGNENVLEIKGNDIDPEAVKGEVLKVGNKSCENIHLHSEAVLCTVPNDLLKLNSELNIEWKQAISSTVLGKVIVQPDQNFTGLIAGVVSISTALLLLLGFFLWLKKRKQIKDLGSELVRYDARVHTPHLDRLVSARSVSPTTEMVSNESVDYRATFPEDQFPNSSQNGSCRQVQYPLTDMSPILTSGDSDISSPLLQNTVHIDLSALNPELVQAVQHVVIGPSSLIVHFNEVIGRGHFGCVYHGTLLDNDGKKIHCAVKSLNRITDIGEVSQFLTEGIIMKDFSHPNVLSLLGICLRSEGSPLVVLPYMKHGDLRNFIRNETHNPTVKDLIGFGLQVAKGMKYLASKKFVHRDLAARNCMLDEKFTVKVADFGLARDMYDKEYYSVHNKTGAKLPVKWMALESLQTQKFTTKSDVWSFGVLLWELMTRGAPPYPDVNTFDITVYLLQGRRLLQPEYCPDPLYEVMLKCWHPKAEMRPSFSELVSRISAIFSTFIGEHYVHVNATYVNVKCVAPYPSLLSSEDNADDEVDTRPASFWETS
# Summary of the method: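 Serum-starved (3 h) PC-3 cells were treated 1 h with compounds (8-point curve, 0.3% DMSO), then stimulated with 100 ng/mL human HGF for 10 min. Lysate phospho-Met (panTyr) was measured by sandwich ELISA, normalised to DMSO and reference-inhibitor controls. IC50 came from 4-parameter logistic fit.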
# [5] = biological target: Mer (phospho-Mer, MERTK-transfected 293A cells) (Homo sapiens (Human), UniProt Q12866); experiment: Mer autophosphorylation ELISA in transient transfected 293A cells (Example H); format: cell-based; conditions: cellular activity; Mer autophosphorylation ELISA in transient transfected 293A cells
# Mer (phospho-Mer, MERTK-transfected 293A cells), sequence (Q12866 21-999): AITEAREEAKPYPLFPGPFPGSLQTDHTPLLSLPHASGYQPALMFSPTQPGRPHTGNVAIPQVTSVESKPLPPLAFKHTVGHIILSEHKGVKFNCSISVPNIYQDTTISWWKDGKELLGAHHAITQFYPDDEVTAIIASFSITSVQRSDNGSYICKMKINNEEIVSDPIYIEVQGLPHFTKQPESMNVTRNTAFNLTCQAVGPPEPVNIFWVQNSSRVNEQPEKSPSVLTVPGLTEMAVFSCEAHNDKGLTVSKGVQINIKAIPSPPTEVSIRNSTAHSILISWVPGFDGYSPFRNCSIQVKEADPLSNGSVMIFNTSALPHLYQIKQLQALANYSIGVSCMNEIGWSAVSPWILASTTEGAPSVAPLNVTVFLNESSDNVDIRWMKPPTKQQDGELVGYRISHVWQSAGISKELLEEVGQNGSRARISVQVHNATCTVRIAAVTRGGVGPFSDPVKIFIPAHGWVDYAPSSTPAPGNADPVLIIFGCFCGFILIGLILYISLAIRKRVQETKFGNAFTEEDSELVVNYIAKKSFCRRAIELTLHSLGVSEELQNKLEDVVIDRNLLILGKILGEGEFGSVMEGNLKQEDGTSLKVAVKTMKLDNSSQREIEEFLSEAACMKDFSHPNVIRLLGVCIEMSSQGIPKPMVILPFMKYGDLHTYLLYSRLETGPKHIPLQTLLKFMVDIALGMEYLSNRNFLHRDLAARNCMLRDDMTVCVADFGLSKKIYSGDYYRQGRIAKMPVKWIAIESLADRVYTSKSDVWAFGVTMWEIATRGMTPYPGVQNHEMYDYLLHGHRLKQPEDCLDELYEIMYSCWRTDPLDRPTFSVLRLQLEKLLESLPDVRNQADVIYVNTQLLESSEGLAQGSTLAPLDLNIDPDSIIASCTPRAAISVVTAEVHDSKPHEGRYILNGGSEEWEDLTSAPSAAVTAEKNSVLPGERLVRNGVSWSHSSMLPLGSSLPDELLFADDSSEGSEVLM
# Summary of the method: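 IC50 from 4-parameter logistic fit of phospho-Mer levels, quantified by ELISA against a phospho-Mer standard in lysates of MERTK-transfected 293A cells. Cells exposed 1 h to 8-point serial dilutions, serum-free, 0.3% DMSO; controls: DMSO (100%) and reference inhibitor (0%).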
# [6] = protocol of Example B-2 (other compounds)
# [7] = protocol of Example C-2 (other compounds)
# [8] = protocol of Example D-2 (other compounds)
# Human KDR (residues 790-1356), sequence (P35968 790-1356): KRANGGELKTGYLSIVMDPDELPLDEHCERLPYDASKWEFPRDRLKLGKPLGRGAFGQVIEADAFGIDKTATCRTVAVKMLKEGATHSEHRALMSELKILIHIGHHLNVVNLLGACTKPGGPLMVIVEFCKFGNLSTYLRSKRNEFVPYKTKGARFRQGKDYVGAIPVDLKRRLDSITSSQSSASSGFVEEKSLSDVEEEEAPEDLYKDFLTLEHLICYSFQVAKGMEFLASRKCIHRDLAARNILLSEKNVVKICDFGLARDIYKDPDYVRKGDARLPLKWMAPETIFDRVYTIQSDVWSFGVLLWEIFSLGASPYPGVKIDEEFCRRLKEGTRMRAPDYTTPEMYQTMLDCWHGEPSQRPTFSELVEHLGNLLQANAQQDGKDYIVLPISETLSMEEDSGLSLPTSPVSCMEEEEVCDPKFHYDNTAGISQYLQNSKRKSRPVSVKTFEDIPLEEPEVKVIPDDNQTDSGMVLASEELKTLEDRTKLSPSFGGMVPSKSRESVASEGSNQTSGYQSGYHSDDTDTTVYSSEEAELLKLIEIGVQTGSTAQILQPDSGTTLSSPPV
smiles,measurement,setting,value
"Cc1ncc(C(=O)Nc2ccc(Oc3ccnc4cc(Br)cnc34)cc2)c(O)c1-c1ccc(F)cc1 [Compound 149, N-[4-[(7-Bromo-1,5-naphthyridin-4-yl)oxy]phenyl]-5-(4-fluorophenyl)-4-hydroxy-6-methylpyridine-3-carboxamide]",IC50,[1]; [6],0.1 to 0.3 µM
same,IC50,[2]; [7],< 0.1 µM
same,IC50,[3]; [8],< 0.1 µM
same,IC50,[4],< 0.1 µM
same,IC50,[5],< 0.1 µM
"COc1cnc2c(Oc3ccc(NC(=O)c4c(C)ncn(-c5ccc(F)cc5)c4=O)cc3)ccnc2c1 [Compound 255, 1-(4-Fluorophenyl)-N-[4-[(7-methoxy-1,5-naphthyridin-4-yl)oxy]phenyl]-4-methyl-6-oxopyrimidine-5-carboxamide]",IC50,[1]; [6],> 0.3 µM
same,IC50,[2]; [7],< 0.1 µM
same,IC50,[3]; [8],0.1 to 0.3 µM
same,IC50,[4],0.1 to 0.3 µM
same,IC50,[5],< 0.1 µM
"COc1cnc2c(Oc3ccc(NC(=O)c4cn(C(C)(C)C)c(C)c(-c5ccc(F)cc5)c4=O)cc3)ccnc2c1 [Compound 165, 1-tert-Butyl-5-(4-fluorophenyl)-N-[4-[(7-methoxy-1,5-naphthyridin-4-yl)oxy]phenyl]-6-methyl-4-oxopyridine-3-carboxamide]",IC50,[1]; [6],> 0.3 µM
same,IC50,[2]; [7],< 0.1 µM
same,IC50,[3]; [8],< 0.1 µM
same,IC50,[5],< 0.1 µM
"C=C(C)c1cc2nccc(Oc3ccc(NC(=O)c4cnc(C)c(-c5ccc(F)cc5)c4O)cc3F)c2nc1OC [Compound 452, N-[3-fluoro-4-[(6-methoxy-7-prop-1-en-2-yl-1,5-naphthyridin-4-yl)oxy]phenyl]-5-(4-fluorophenyl)-4-hydroxy-6-methylpyridine-3-carboxamide]",IC50,[1]; protocol of Example B-2,0.1 to 0.3 µM
same,IC50,[2]; protocol of Example C-2,< 0.1 µM
same,IC50,[3]; protocol of Example D-2,> 0.3 µM
"COc1ccc2nccc(Oc3ccc(NC(=O)c4c[nH]c(=O)n(-c5ccc(F)cc5)c4=O)cc3)c2n1 [Compound 339, 3-(4-fluorophenyl)-N-[4-[(6-methoxy-1,5-naphthyridin-4-yl)oxy]phenyl]-2,4-dioxo-1H-pyrimidine-5-carboxamide]",IC50,[1]; [6],> 0.3 µM
same,IC50,[2]; [7],0.1 to 0.3 µM
same,IC50,[3]; [8],0.1 to 0.3 µM
"CC(C)n1cc(C(=O)Nc2ccc(Oc3ccnc4cc(F)cnc34)c(F)c2)c(=O)c(-c2ccc(F)cc2)c1 [Compound 161, N-[3-Fluoro-4-[(7-fluoro-1,5-naphthyridin-4-yl)oxy]phenyl]-5-(4-fluorophenyl)-4-oxo-1-propan-2-ylpyridine-3-carboxamide]",IC50,[1]; [6],< 0.1 µM
same,IC50,[2]; [7],< 0.1 µM
same,IC50,[3]; [8],< 0.1 µM
"COc1ccc(-c2cn(C)cc(C(=O)Nc3ccc(Oc4ccnc5cc(OC)c(OC)nc45)c(F)c3)c2=O)cc1 [Compound 34, N-[4-[(6,7-Dimethoxy-1,5-naphthyridin-4-yl)oxy]-3-fluorophenyl]-5-(4-methoxyphenyl)-1-methyl-4-oxopyridine-3-carboxamide hydrochloride]",IC50,[1]; [6],< 0.1 µM
same,IC50,[2]; [7],< 0.1 µM
same,IC50,[3]; [8],0.1 to 0.3 µM
"CCOc1nc(C)c(-c2ccc(F)cc2)c(O)c1C(=O)Nc1ccc(Oc2ccnc3cc(OC)c(OC)nc23)c(F)c1 [Compound 365, N-[4-[(6,7-dimethoxy-1,5-naphthyridin-4-yl)oxy]-3-fluorophenyl]-2-ethoxy-5-(4-fluorophenyl)-4-hydroxy-6-methylpyridine-3-carboxamide]",IC50,[1]; [6],> 0.3 µM
same,IC50,[2]; [7],0.1 to 0.3 µM
same,IC50,[3]; [8],> 0.3 µM
"COc1nc2c(Oc3ccc(NC(=O)c4c(C)nc(C)c(-c5ccc(F)cc5)c4O)cc3F)ccnc2cc1C(C)C [Compound 592, N-[3-Fluoro-4-[(6-methoxy-7-propan-2-yl-1,5-naphthyridin-4-yl)oxy]phenyl]-5-(4-fluorophenyl)-4-hydroxy-2,6-dimethylpyridine-3-carboxamide]",IC50,[1]; protocol of Example B-2,> 0.3 µM
same,IC50,[2]; protocol of Example C-2,< 0.1 µM
same,IC50,[3]; protocol of Example D-2,> 0.3 µM
"COc1cc2nccc(Oc3ccc(NC(=O)c4c(C)nc(OC)c(-c5ccc(F)cc5)c4OC)cc3F)c2nc1OC [Compound 444, N-[4-[(6,7-dimethoxy-1,5-naphthyridin-4-yl)oxy]-3-fluorophenyl]-5-(4-fluorophenyl)-4,6-dimethoxy-2-methylpyridine-3-carboxamide]",IC50,[1]; [6],> 0.3 µM
same,IC50,[2]; [7],> 0.3 µM
same,IC50,[3]; [8],> 0.3 µM
"C=C(C)c1cc2nccc(Oc3ccc(NC(=O)c4cnc(C)c(-c5ccc(F)cc5C)c4O)cc3F)c2nc1OC [Compound 449, N-[3-fluoro-4-[(6-methoxy-7-prop-1-en-2-yl-1,5-naphthyridin-4-yl)oxy]phenyl]-5-(4-fluoro-2-methylphenyl)-4-hydroxy-6-methylpyridine-3-carboxamide]",IC50,[1]; protocol of Example B-2,> 0.3 µM
same,IC50,[2]; protocol of Example C-2,< 0.1 µM
same,IC50,[3]; protocol of Example D-2,> 0.3 µM
"COc1cc2nccc(Oc3ccc(NC(=O)C4=C5CCCN5CC(c5ccc(F)cc5)C4=O)cc3F)c2nc1OC (single isomer, unassigned; enantiomer 2) [Compound 375, N-[4-[(6,7-dimethoxy-1,5-naphthyridin-4-yl)oxy]-3-fluorophenyl]-6-(4-fluorophenyl)-7-oxo-2,3,5,6-tetrahydro-1H-indolizine-8-carboxamide, enantiomer 2]",IC50,[1]; [6],> 0.3 µM
same,IC50,[2]; [7],< 0.1 µM
same,IC50,[3]; [8],< 0.1 µM
"Cc1c(-c2ccc(F)cc2)c(=O)c(C(=O)Nc2ccc(Oc3ccnc4cc(C(F)(F)F)cnc34)c(F)c2)cn1C(C)C [Compound 152, 5-(4-Fluorophenyl)-N-[3-fluoro-4-[[7-(trifluoromethyl)-1,5-naphthyridin-4-yl]oxy]phenyl]-6-methyl-4-oxo-1-propan-2-ylpyridine-3-carboxamide]",IC50,[1]; [6],> 0.3 µM
same,IC50,[2]; [7],> 0.3 µM
same,IC50,[3]; [8],> 0.3 µM
"COc1cc2nccc(Oc3ccc(NC(=O)c4cn(C(C)C)c(C)c(-c5ccc(F)cc5)c4=O)cc3F)c2nc1N(C)C [Compound 583, N-[4-[[6-(Dimethylamino)-7-methoxy-1,5-naphthyridin-4-yl]oxy]-3-fluorophenyl]-5-(4-fluorophenyl)-6-methyl-4-oxo-1-propan-2-ylpyridine-3-carboxamide]",IC50,[1]; protocol of Example B-2,> 0.3 µM
same,IC50,[2]; protocol of Example C-2,< 0.1 µM
same,IC50,[3]; protocol of Example D-2,< 0.1 µM
"C=C(C)c1cc2nccc(Oc3ccc(NC(=O)c4c(C)nc(C)c(-c5ccc(F)cc5)c4O)cc3F)c2nc1OC [Compound 453, N-[3-fluoro-4-[(6-methoxy-7-prop-1-en-2-yl-1,5-naphthyridin-4-yl)oxy]phenyl]-5-(4-fluorophenyl)-4-hydroxy-2,6-dimethylpyridine-3-carboxamide]",IC50,[1]; protocol of Example B-2,0.1 to 0.3 µM
same,IC50,[2]; protocol of Example C-2,< 0.1 µM
same,IC50,[3]; protocol of Example D-2,> 0.3 µM
"COc1nc2c(Oc3ccc(NC(=O)c4cnc(C)c(-c5ccc(F)cc5)c4O)cc3F)ccnc2cc1C(C)C [Compound 590, N-[3-Fluoro-4-[(6-methoxy-7-propan-2-yl-1,5-naphthyridin-4-yl)oxy]phenyl]-5-(4-fluorophenyl)-4-hydroxy-6-methylpyridine-3-carboxamide]",IC50,[1]; protocol of Example B-2,> 0.3 µM
same,IC50,[2]; protocol of Example C-2,< 0.1 µM
same,IC50,[3]; protocol of Example D-2,> 0.3 µM
"COc1nc2c(Oc3ccc(NC(=O)c4cnc(C)c(-c5ccc(F)cc5C)c4O)cc3F)ccnc2cc1C(C)C [Compound 591, N-[3-Fluoro-4-[(6-methoxy-7-propan-2-yl-1,5-naphthyridin-4-yl)oxy]phenyl]-5-(4-fluoro-2-methylphenyl)-4-hydroxy-6-methylpyridine-3-carboxamide]",IC50,[1]; protocol of Example B-2,> 0.3 µM
same,IC50,[2]; protocol of Example C-2,0.1 to 0.3 µM
same,IC50,[3]; protocol of Example D-2,> 0.3 µM

# From US12371428B2 (Exelixis, Inc., priority 2019, dated 2025)
